Assay results reported in patent US20040071687A1, “Adult stem cell recruitment” (priority 2002, published 2004).

Columns and labels:
Sca-1+ bone marrow cells = assay: Cell cycle analysis of bone marrow Sca-1+ cells after 5-FU; type: in vivo, mice
Protocol: (§1) Administration of 5-FU. MMP-9^−/− and MMP-9^+/+ mice were injected with the cell cycle cytotoxic agent 5-fluorouracil (5-FU) to deplete cycling hematopoietic cells. In particular, 250 mg/kg body weight 5-FU (Pharmacia & Upjohn Company) was administered intravenously (i.v.). At specified time points, mice were sacrificed. Femurs were flushed and bone marrow cells were used for cell cycle analysis or subjected to magnetic bead isolation (MACS) (Miltenyi Biotec). Lineage-negative bone marrow cells were isolated by MACS after labeling the cells with a depletion cocktail of lineage-specific monoclonal antibodies (mAbs), including CD5, CD45R, CD11b, Gr-1, TER119, 7/4 (Stem Cell Technology, Canada). Lin^− cells were MACS isolated with mAb against Sca-1. […] For cell cycle analysis whole bone marrow cells of MMP-9^−/− and MMP-9^+/+ mice were labeled with Sca-1-FITC. Lin^−Sca-1^+bone marrow cells were labeled with c-Kit-FITC. Labeled bone marrow cells and Lin^−Sca-1^+cells were fixed in ice-cold ethanol for 30 min. After RNAase treatment (Sigma, MO), cells were stained with propidium iodide (Molecular-Probes, Oregon). The DNA content of Sca-1 and Lin^−Sca-1^+c-Kit^+ cells was determined by FACS (Coulter flow cytometer).

[1] = test system: MMP-9−/− and MMP-9+/+ mice; assay: 5-FU myelosuppression: survival and hematopoietic recovery
Protocol: as §1, with “cytometer). […]” for “cytometer).”
Peripheral blood analysis. Blood was collected with capillary pipettes by retro-orbital bleeding and WBC counts were determined by using a hemocytometer. […]

human CD34+ cells = assay: In vitro transmigration through reconstituted basement membranes (Matrigel transwell); type: cell-based; details: for migration of CD34+ cells: Matrigel-coated transwell, SDF-1 100 ng/ml in lower chamber, inhibitor in both chambers (CGS 27023A 1 nM; 5-phenyl-1,10-phenanthroline 1 mM)
Protocol: Substrate zymography. Supernatants from human MACS-isolated CD34^+ (5×10^3) cells were collected after overnight incubation in serum-free medium with/without SDF-1 (150 ng/ml R&D-Systems) or VEGF (50 ng/ml, PeproTech). MMP activity was determined by gelatin zymography (Lane et al., 2000).
In vitro transmigration through reconstituted basement membranes. […] CD34^+ cells were added to 8 μm pore Matrigel-coated (BD) transwell inserts (Costar, Cambridge Mass.). […] Transmigrated cells were quantified, placed in a clonogenic assay and in long-term cultures to measure the number of CAFC and LTC-IC (Jo et al., 2000).

[2] = test system: MS-5 murine stromal cells; assay: Release of sKitL from stromal cell line cultures; type: cell-based; details: MS-5 cells, serum-free medium, 24 hours
Protocol: Stromal cell line cultures. […] Immunoassay for chemokines and cytokines. Plasma levels of SDF-1, VEGF, and sKitL were measured using commercially available ELISA (R&D Systems).

[3] = test system: lethally irradiated syngeneic mice; assay: Bone marrow repopulating assay with mobilized PBMCs; type: in vivo; details: for long-term engraftment of lethally irradiated syngeneic mice transplanted with mobilized PBMCs: PBMCs from SCID mice given AdSDF-1, AdVEGF or G-CSF, no MPI, n=12
Protocol: Bone marrow repopulating assay. Chemo/cytokine-mobilized PBMCs from SCID mice treated with/without MPI were collected on day 7. PBMCs from G-CSF-treated MMP-9^−/− and MMP-9^+/+ mice were collected on day 5. Mobilized PBMCs (10^5) were injected into lethally irradiated syngeneic animals (9.5 Gy). Survival was monitored.

[4] = test system: white blood cells and hematopoietic progenitors (CFU-Cs); assay: Mobilization of white blood cells and progenitors (peripheral blood analysis, CFU-C); type: in vivo, mice; details: for mobilization of mature white blood cells and hematopoietic progenitors (CFU-Cs): plasma elevation in MMP-9+/+ mice, but not in MMP-9−/− mice
Protocol: (§2) Mobilization of bone marrow-derived cells by adenovirus delivered factors. […] The vector was injected i.v. as a single dose. Recombinant G-CSF (R&D Systems, MN) was administered subcutaneously daily from day 0-5 at 50 μg/kg body weight. Recombinant murine KitL (peproTech, NJ) was injected s.c. twice a day at 100 or 200 μg/kg body weight.
Peripheral blood analysis. Blood was collected with capillary pipettes by retro-orbital bleeding and WBC counts were determined by using a hemocytometer. Peripheral blood mononuclear cells (PBMCs) were isolated from heparinized blood after centrifugation over a discontinuous gradient using Lympholyte-M (Cedarlane, Ontario, Canada).
Progenitor assay. Peripheral blood mononuclear cells (10^5) were plated in Iscove's modified Dulbecco's medium (IMDM) containing 1.2% methylcellulose (Fisher Scientific, NJ), 30% FBS, 5×10^−3M 2-mercaptoethanol 2 mM L-glutamine, 0.5 mM hemin (Sigma), murine KitL (20 ng/ml), human erythropoietin (6U/ml) and murine IL-3 (50 ng/ml). Colonies (>50 cells) were scored after 7 days (37° C., 5% CO2).

[5] = test system: lethally irradiated syngeneic recipients; assay: CFU-S assay; type: in vivo; details: chemokine/cytokine-treated SCID mice given metalloproteinase inhibitor
Protocol: CFU-S assay. Mobilized peripheral blood mononuclear cells (10^5/mouse) of chemokine-treated SCID mice were injected i.v. into lethally irradiated syngeneic recipients (9 Gy). Spleens were removed 12 days later and fixed in Bouin's solution. The number of macroscopic spleen colonies was scored.

MMP-9 = assay: Immunohistochemistry for MMP-9 in bone marrow sections; type: in vivo; details: wild type mice; SDF-1 and VEGF by adenoviral vector, G-CSF recombinant
Protocol: Immunohistochemistry. Bone marrow sections were deparaffinized, rehydrated through an alcohol series immersed in 0.1% H2O2 and blocked using an Avidin and Biotin blocking kit (Vector, Burlingame, Calif.). For MMP-9 staining, the M.O.M. immunodetection kit (Vector) was used as recommended. Sections were incubated with MMP-9 mAb (clone 7-11C, Oncogene, MA) for 30 min, washed in PBS, incubated with a biotinylated horse anti-mouse IgG and incubated for 5 min with A&B reagents (Vector). Von Willebrand Factor (vWF) immunohistochemistry was performed on deparaffinized sections, treated with 3% H2O2, incubated with 0.05% Pronase E (Sigma). Sections were stained with anti-human vWF/HRP (Dako). Sections were developed with 3,3′-diaminobenzidine substrate and counterstained with eosin and hematoxylin.

sKitL = assay: Plasma sKitL by ELISA after adenoviral vector or cytokine treatment; type: in vivo; details: MMP-9+/+ mice, five days after treatment
Protocol: as §2
Immunoassay for chemokines and cytokines. Plasma levels of SDF-1, VEGF, and sKitL were measured using commercially available ELISA (R&D Systems).

[6] = test system: circulating endothelial progenitors (CEPs); assay: Endothelial progenitor assay (CFU-EC, VEGFR2+ cells); type: in vivo; details: wild type mice, elevated plasma levels
Protocol: Endothelial progenitor assay. Circulating bone marrow-derived CEPs were quantified by colony forming unit-endothelial cell (CFU-EC) as previously described (Hattori et al. 2001a). Mobilized PBMCs were cultured in M199 media (GIBCO-BRL, Gaithersburg, Md.) supplemented with 20% FBS (HyClone, UT), ECGF (30 μg/ml), human FGF-basic (Sigma) and heparin. After 5 weeks of culture, adherent cells were scored for colonies (>10 cells). Endothelial colonies were identified by metabolic uptake of DiI-Acetylated-LDL (1 μg/ml; PerImmune Inc, Rockville, Md.) at 37° C. for 5 hours, and visualized fluorescence microscopy. The number of VEGFR2^+ cells was quantified by FACS using a Cy2-labeled mAb to VEGFR2 (clone DC101, ImClone, NY), (Hattori et al. 2001a).

Molecule: O=c1[nH]cc(F)c(=O)[nH]1 [5-FU, 5-fluorouracil]
- total number of Sca-1+ cells in S-phase (Sca-1+ bone marrow cells; MMP-9+/+ mice, day 6 after 5-FU): 2.2±0.05 ×10^5/femur
- total number of Sca-1+ cells in S-phase (Sca-1+ bone marrow cells; MMP-9+/+ mice, day 10 after 5-FU): 11.5±0.3 ×10^5/femur
- total number of Sca-1+ cells in S-phase (Sca-1+ bone marrow cells; MMP-9−/− mice, day 6 after 5-FU): 1.0±0.03 ×10^5/femur
- total number of Sca-1+ cells in S-phase (Sca-1+ bone marrow cells; MMP-9−/− mice, day 10 after 5-FU): 2.1±0.04 ×10^5/femur
- survival of 5-FU-treated mice ([1]; MMP-9+/+, mouse, in vivo, iv): all of the MMP-9^+/+ mice survived
- death of 5-FU-treated mice ([1]; MMP-9−/− mice, single i.v. dose, n=16): 72%

Molecule: c1ccc(-c2cc3cccnc3c3ncccc23)cc1 [5-phenyl-1,10-phenanthroline]
- migration of CD34+ cells (human CD34+ cells): completely blocked

Molecule: COc1ccc(S(=O)(=O)N(Cc2cccnc2)[C@@H](C(=O)NO)C(C)C)cc1 [CGS 27023A]
- release of sKitL [2]: blocked
- time within which all recipient mice died ([3]; recipients of PBMCs from MPI-treated mice): ≤ 19 days
- white blood cell counts and chemokine-induced mobilization ([4]; MMP-9 competent mice (data not shown)): decreased white blood cell counts and blocked chemokine-induced mobilization
- mobilization of hematopoietic cells with short-term repopulating potential (CFU-S) [5]: completely blocked
- migration of CD34+ cells (human CD34+ cells): completely blocked

Molecule: VEGF
- immunoreactive MMP-9 in bone marrow stromal and hematopoietic cells (MMP-9): increased immunoreactive MMP-9
- long-term engraftment of lethally irradiated syngeneic mice transplanted with mobilized PBMCs [3]: 40%
- plasma sKitL levels compared to untreated animals (sKitL): increased plasma sKitL levels
- mobilization of circulating endothelial progenitors (CFU-EC, VEGFR2) [6]: increased the mobilization of circulating endothelial progenitors
- mobilization of mature white blood cells and hematopoietic progenitors (CFU-Cs) [4]: mobilized mature white blood cells
- release of pro-MMP-9 and migration of human CD34+ progenitor and stem cells (human CD34+ cells; transwell migration assay, chemoattractant): stimulate the release of pro-MMP-9 and induce migration

B1: G-CSF: recombinant granulocyte colony stimulating factor (R&D Systems), s.c. daily day 0-5 (protein, UniProt P09919 31-207, looked up)
Granulocyte …: TPLGPASSLPQSFLLKCLEQVRKIQGDGAALQEKLVSECATYKLCHPEELVLLGHSLGIPWAPLSSCPSQALQLAGCLSQLHSGLFLYQGLLQALEGISPELGPTLDTLQLDVADFATTIWQQMEELGMAPALQPTQGAMPAFASAFQRRAGGVLVASHLQSFLEVSYRVLRHLAQP
- immunoreactive MMP-9 in bone marrow stromal and hematopoietic cells (MMP-9): increased immunoreactive MMP-9
- survival of transplanted recipients ([3]; MMP-9+/+ mice, PBMCs obtained day 5, n=8/group): 100%
- day by which all mice died ([3]; MMP-9−/− mice treated with G-CSF, n=8/group): ~18 days
- long-term engraftment of lethally irradiated syngeneic mice transplanted with mobilized PBMCs [3]: 80%
- plasma sKitL levels compared to untreated animals (sKitL): increased plasma sKitL levels
- mobilization of mature white blood cells and hematopoietic progenitors (CFU-Cs) [4]: mobilized mature white blood cells
